Measured values published in US8541590B2, “Proteasome inhibitors and processes for their preparation, purification and use” (Cephalon, Inc., priority 2009, dated 2013).
Marks after values point to notes of the source that are not given here. One block for each molecule: values may come before it.

Columns and labels:
[1] = Storage stability of boronic ester of Formula X, bulk solid state drug substance (Example 9); assay type: physicochemical
Procedure: Bulk solid state drug substance was put in polyethylene (PE) double bag in high-density polyethylene (HDPE) containers and the containers were stored under three conditions: (a) 4° C., (b) 25° C./60% relative humidity (RH), and (c) 40° C./75% RH.
6-(2S,3R)—N-[(1R)-1-(1,3,6,2-dioxazaborocan-2-yl)-3-methylbutyl}-3-hydroxy-2-{(6-phenylpyridin-2-yl)formamido]butanamide converts to [(1R)-1-[[(2S,3R)-3-Hydroxy-2-[[(6-phenylpyridin-2-yl)carbonyl]amino]-1-oxobutyl]amino]-3-methylbutyl]boronic acid (i.e., Compound 1) as soon as it is in the presence of an aqueous phase. Therefore, HPLC analysis of purity was of the [(1R)-1-[[(2S,3R)-3-Hydroxy-2-[[(6-phenylpyridin-2-yl)carbonyl]amino]-1-oxobutyl]amino]-3-methylbutyl]boronic acid hydrolysis product. Stability was tested at time zero (T0), and after storage for one month (1M), six months (6M) and (except for the 40° C./75% RH conditions) one year (12M).

[2] = Occupational exposure limit (OEL)
[3] = Comparative storage stability of Compound 1, Batches A, B, C (Example 9A); assay type: physicochemical
Procedure: Three (3) separate batches of Compound 1 were tested for storage stability. The batches are identified as Batch A, Batch B, and Batch C below. Bulk solid state drug substance was put in polyethylene (PE) double bag in high-density polyethylene (HDPE) containers and the containers were stored under the indicated conditions.

[4] = Comparative bioavailability of bortezomib and boronic ester of Formula XI in rat, Example 10 (i.v.; p.o. in saline); assay type: in vivo, male Sprague Dawley rats; details: male, Sprague Dawley, iv, bortezomib in plasma, 0.8 mg/kg, mean ± SEM
Procedure: Three adult male Sprague Dawley rats were used in each treatment group. The rats were fasted overnight prior to oral dose administration. Intravenous administration was via the lateral tail vein and oral doses were administered by gavage. The compound was administered iv in a vehicle of 3% DMSO:30% Solutol:67% phosphate buffered saline. Oral dosing was in phosphate buffered saline.
For blood collection, each rat (unanesthetized) was placed in a clear Plexiglas® restraining tube, and blood samples (approximately 0.25 mL) were drawn from a lateral tail vein into heparinized collection tubes at predetermined sampling times (0.083, 0.25, 0.5, 1, 2, 4, and 6 hours post dose). No pre-dose samples were obtained. The exception to this procedure was the last sampling time in which the animals were sacrificed by decapitation and trunk blood was obtained rather than blood via a tail vein. The blood samples were placed on wet ice until centrifuged to separate plasma. The plasma fraction was transferred into clean dry tubes, frozen on dry ice and stored at approximately −20° C. pending analysis.
Plasma was prepared for high performance liquid chromatography (HPLC)/mass spectrometric analysis according to standard protocol following protein precipitation with acetonitrile containing an internal standard. The plasma samples were then analyzed for both bortezomib and alprenolol (internal standard) via HPLC coupled with tandem mass spectrometry.
The plasma concentration data for all rats were entered into Excel spreadsheets in preparation for pharmacokinetic analysis. Pharmacokinetic parameters for bortezomib were estimated for each rat by non-compartmental analysis (Gibaldi M, Perrier D. Pharmacokinetics, 2nd edition, Marcel Dekker, New York, Chapter 11, 1982) of the plasma concentration versus time data using WinNonlin software (Professional Version 4.1, Pharsight Corporation, Palo Alto, Calif., 1997).
The maximum plasma concentration (Cmax) was the highest observed plasma concentration after an oral dose; tmax was the corresponding time when Cmax was observed. The terminal rate constant for elimination from plasma (β) was estimated by linear regression of the terminal portion of the semi-logarithmic plasma concentration versus time curve. The apparent terminal half-life (t1/2) was calculated as 0.693 divided by β. The area under the plasma concentration versus time curve from time zero to the time of the last measurable concentration (AUC0-t) after a single dose was determined by the linear trapezoidal rule. The area from zero to infinity (AUC0-∞) was calculated as the sum of AUC0-t and the area extrapolated from the last measurable concentration to infinity (Clast/β). Concentrations pre dose were all assumed to be zero for the purpose of calculation of the AUC. Oral bioavailability was determined by dividing the dose normalized oral AUC0-∞ by the AUC0-∞ from iv dosing and multiplying by 100 to express the ratio as a percent.

[5] = Batch B, 5° C./ambient RH, 1 Month
[6] = Batch B, 5° C./ambient RH, 3 Month
[7] = Batch B, 5° C./ambient RH, 6 Month
[8] = Batch C, 5° C./ambient RH, 1 Month
[9] = Batch C, 5° C./ambient RH, 3 Month
[10] = Batch C, 5° C./ambient RH, 6 Month
[11] = Batch C, 5° C./ambient RH, 12 Month

Appearance ([1]; 4° C., 1 M): White to off-
Appearance ([1]; 4° C., 6 M): White to off-
Appearance ([1]; 4° C., 12 M): White to off-
Chemical purity (%) ([1]; 4° C./ambient RH, 1 M): 99.8%
Impurity by HPLC (%) RRT = 0.49 ([1]; 4° C./ambient RH, 1 M): 0.06%
Impurity by HPLC (%) RRT = 1.18 ([1]; 4° C./ambient RH, 1 M): 0.17%
Chemical purity (%) ([1]; 4° C./ambient RH, 6 M): 99.9%
Chemical purity (%) ([1]; 4° C./ambient RH, 12 M): 99.9%
Impurity by HPLC (%) RRT = 1.18 ([1]; 4° C./ambient RH, 12 M): 0.07%
Appearance ([1]; 25° C./60% RH, 1 M): White to off-
Chemical purity (%) ([1]; 25° C./60% RH, 1 M): 99.6%
Impurity by HPLC (%) RRT = 0.49 ([1]; 25° C./60% RH, 1 M): 0.09%
Impurity by HPLC (%) RRT = 1.18 ([1]; 25° C./60% RH, 1 M): 0.32%
Appearance ([1]; 25° C./60% RH, 6 M): White to off-
Chemical purity (%) ([1]; 25° C./60% RH, 6 M): 99.8%
Impurity by HPLC (%) RRT = 0.49 ([1]; 25° C./60% RH, 6 M): 0.08%
Impurity by HPLC (%) RRT = 1.18 ([1]; 25° C./60% RH, 6 M): 0.06%
Appearance ([1]; 25° C./60% RH, 12 M): White to off-
Chemical purity (%) ([1]; 25° C./60% RH, 12 M): 99.9%
Impurity by HPLC (%) RRT = 0.49 ([1]; 25° C./60% RH, 12 M): 0.07%
Impurity by HPLC (%) RRT = 1.18 ([1]; 25° C./60% RH, 12 M): 0.08%
Appearance ([1]; 40° C./75% RH, 1 M): White to off-
Chemical purity (%) ([1]; 40° C./75% RH, 1 M): 99.7%
Impurity by HPLC (%) RRT = 0.49 ([1]; 40° C./75% RH, 1 M): 0.10%
Impurity by HPLC (%) RRT = 1.18 ([1]; 40° C./75% RH, 1 M): 0.18%
Appearance ([1]; 40° C./75% RH, 6 M): White to off-
Chemical purity (%) ([1]; 40° C./75% RH, 6 M): 99.8%
Impurity by HPLC (%) RRT = 0.49 ([1]; 40° C./75% RH, 6 M): 0.10%
Impurity by HPLC (%) RRT = 1.18 ([1]; 40° C./75% RH, 6 M): 0.11%
Appearance ([1]; T0): White to off-
Impurity by HPLC (%) RRT = 1.18 ([1]; T0): 0.50%
Chemical purity (%) ([1]; T0, HPLC of Compound 1 hydrolysis product): 99.5%
Molecule: 6-(2S,3R)—N-[(1R)-1-(1,3,6,2-dioxazaborocan-2-yl)-3-methylbutyl}-3-hydroxy-2-{(6-phenylpyridin-2-yl)formamido]butanamide [boronic ester of Formula X]

occupational exposure limit (OEL) [2]: 0.3 μg/m^3
HPLC Purity (%) ([3]; Batch A, 4° C./ambient RH, 3 M): 94.5%
Appearance ([3]; Batch A, 4° C./ambient RH, 3 Months): White to off-
HPLC Purity (%) ([3]; Batch A, 4° C./ambient RH, 6 M): 94.1%
Appearance ([3]; Batch A, 4° C./ambient RH, 6 Months): White to off-
HPLC Purity (%) ([3]; Batch A, 25° C./60% RH, 3 M): 94.4%
Appearance ([3]; Batch A, 25° C./60% RH, 3 Months): White to off-
HPLC Purity (%) ([3]; Batch A, 25° C./60% RH, 6 M): 94.1%
Appearance ([3]; Batch A, 25° C./60% RH, 6 Months): White to off-
HPLC Purity (%) ([3]; Batch A, 40° C./75% RH, 3 M): 93.2%
Appearance ([3]; Batch A, 40° C./75% RH, 3 Months): White to off-
HPLC Purity (%) ([3]; Batch A, 40° C./75% RH, 6 M): 88.7%
Appearance ([3]; Batch A, 40° C./75% RH, 6 Months): White to off-
Appearance ([3]; Batch A, T0): White to off-
HPLC Purity (%) ([3]; Batch A, T0 (estimated)): 95.3* %
Appearance [3, 5]: White powder
Assay by HPLC (anhydrous) (%) [3, 5]: 97.1%
Assay by HPLC (as-is) (%) [3, 5]: 90.6%
Total Impurities (%) [3, 5]: 3.0%
Water Content (%) [3, 5]: 6.0%
Appearance [3, 6]: White
Assay by HPLC (anhydrous) (%) [3, 6]: 94.0%
Assay by HPLC (as-is) (%) [3, 6]: 87.5%
Total Impurities (%) [3, 6]: 5.9%
Water Content (%) [3, 6]: 6.1%
Appearance [3, 7]: White powder
Assay by HPLC (anhydrous) (%) [3, 7]: 93.5%
Assay by HPLC (as-is) (%) [3, 7]: 85.1%
Total Impurities (%) [3, 7]: 7.3%
Water Content (%) [3, 7]: 8.2%
Appearance ([3]; Batch B, 5° C./ambient RH, T0): White
Assay by HPLC (anhydrous) (%) ([3]; Batch B, 5° C./ambient RH, T0): 101.7%
Assay by HPLC (as-is) (%) ([3]; Batch B, 5° C./ambient RH, T0): 94.4%
Total Impurities (%) ([3]; Batch B, 5° C./ambient RH, T0): 0.6%
Water Content (%) ([3]; Batch B, 5° C./ambient RH, T0): 6.5%
Appearance [3, 8]: White to yellow
Assay by HPLC (anhydrous) (%) [3, 8]: 97.0%
Assay by HPLC (as-is) (%) [3, 8]: 91.4%
HPLC Purity (%) [3, 8]: 97.2%
Water Content (%) [3, 8]: 4.59%
Appearance [3, 9]: White to yellow
Assay by HPLC (anhydrous) (%) [3, 9]: 102.4%
Assay by HPLC (as-is) (%) [3, 9]: 94.6%
HPLC Purity (%) [3, 9]: 96.2%
Water Content (%) [3, 9]: 6.48%
Appearance [3, 10]: Off-white
Assay by HPLC (anhydrous) (%) [3, 10]: 99.9%
Assay by HPLC (as-is) (%) [3, 10]: 91.0%
HPLC Purity (%) [3, 10]: 96.3%
Water Content (%) [3, 10]: 7.74%
Appearance [3, 11]: Off-white
Assay by HPLC (anhydrous) (%) [3, 11]: 95.9%
Assay by HPLC (as-is) (%) [3, 11]: 87.0%
HPLC Purity (%) [3, 11]: 96.2%
Water Content (%) [3, 11]: 8.16%
Appearance ([3]; Batch C, 5° C./ambient RH, T0): Yellowish
Assay by HPLC (anhydrous) (%) ([3]; Batch C, 5° C./ambient RH, T0): 98.1%
Assay by HPLC (as-is) (%) ([3]; Batch C, 5° C./ambient RH, T0): 92.9%
HPLC Purity (%) ([3]; Batch C, 5° C./ambient RH, T0): 98.2%
Water Content (%) ([3]; Batch C, 5° C./ambient RH, T0): 4.16%
increase of total impurities ([3]; within six months, refrigerated conditions): more than 10 fold
Molecule: CC(C)C[C@H](NC(=O)[C@@H](NC(=O)c1cccc(-c2ccccc2)n1)[C@@H](C)O)B(O)O [Compound 1, [(1R)-1-[[(2S,3R)-3-hydroxy-2-[6-phenyl-pyridine-2-carbonyl)amino]-1-oxobutyl]amino]-3-methylbutylboronic acid]

AUC(0-inf) ([4]; n = 3): 472 ± 127 ng·h/mL
AUC(0-t) ([4]; n = 3): 459 ± 127 ng·h/mL
Vd ([4]; n = 3): 2.4 ± 0.8 L/kg
clearance ([4]; n = 3): 34 ± 11 mL/min/kg
half-life ([4]; n = 3, read-out: t1/2, h (converted)): 48 ± 6 min
Molecule: CC(C)C[C@H](NC(=O)[C@H](Cc1ccccc1)NC(=O)c1cnccn1)B(O)O [bortezomib, [(1R)-3-methyl-1-({(2S)-3-phenyl-2-[(pyrazin-2-ylcarbonyl)amino]propanoyl}amino)butyl]boronic acid]
